Drawing on a melting point compilation (Tetko et al.; mined from patent text by program, amines drawn as free bases though some values may be those of a salt), this text covers melting point for 87 compounds.

SMILES strings stand for the structures.

Usually melting point stands for the temperature of the solid-liquid transition.

As to `CNC(=O)C(CCCl)(c1ccccc1)c1ccccc1`, the melting point is 150 to 152 °C.

`COc1ccc2c(c1)[C@@H]1c3ccccc3N[C@@H]1C2` (relative stereo) displayed a melting point of 129 to 130 °C.

For the compound `C(=Cc1nc2ccccc2o1)c1ccccc1`, the melting point lay within 78 to 79 °C.

On to `CCOC(=O)N1CCC(Nc2ccc(Cl)cc2N)CC1`, for which the melting point was found to be 150 °C.

Take `CN1CCOc2cc(S(=O)(=O)n3c(CCC(=O)O)cc4nc(Cl)ccc43)ccc21`: the melting point is 175 to 185 °C.

Turning to `CCN(CC)Nc1ccc(CN2OCC(C)(C)C2=O)c(Cl)c1`, the melting point fell in the range of 139 to 141 °C.

`CCCCC#CCCOc1cc(C=O)ccc1OC` returned a melting point of 42 to 43 °C.

Take `OCC1OC(n2cnc3c(NC4CCCc5ccccc54)ncnc32)C(O)C1O` (configuration not stated): the melting point was in the range of 95.5 to 100 °C.

On to `CCCc1cc(O)cc2cc(-c3ccc(O)cc3)oc12`, for which the melting point was in the range of 178 to 180 °C.

For `CN(C)CCCN=C1CC(c2ccc(C(F)(F)F)cc2)Cc2c1c(=O)c1cc(Cl)ccc1n2O` (configuration not stated), the melting point is 130 to 135 °C.

In turn, `O=C(O)C1(CCc2ccc(Cl)cc2)CCN(CC2CC2)CC1` showed a melting point of 250 °C.

The compound `O=C(O)COCC(=O)NCCCCCCCNC(=O)OCc1ccccc1` returned a melting point of 74 to 74.5 °C.

For `O=C(OCCn1ccnc1)C(O)c1ccccc1` (configuration not stated), the melting point lay within 131 to 132 °C.

For the compound `COC(=O)c1ccc(-c2ccc(NC(=O)c3ccc(OC)c(C#CCN(C)C)c3)cc2)cc1`, the melting point fell in the range of 234 to 237 °C.

`CCn1nnc2cc3c(N4CCN(C(=O)Nc5ccc(Oc6ccccc6)cc5)CC4)ncnc3cc21` displayed a melting point of 167 to 168 °C.

In turn, `COC(=O)C(Oc1nc(OC)cc(OC)n1)C(OC)(c1ccccc1)c1ccccc1` (configuration not stated) returned a melting point of 81 °C.

As to `O=C(Nc1ccc(C(=O)N2CCc3cn[nH]c3-c3sccc32)c(Cl)c1)c1cc(Cl)ccc1F`, the melting point is 282 to 288 °C.

Compound `COC(=O)C1(c2c(F)cccc2F)Nc2ccccc2N1Cc1c(F)cccc1F` (configuration not stated) returned a melting point of 185 to 186 °C.

For `C=C(CCC)C(=O)c1ccc(OC2(C(=O)O)CCC2)c(Cl)c1Cl`, the melting point was 105 to 106 °C.

In turn, `O=C(Nc1ccc(OC(F)(F)F)cc1)c1cccc(Cl)c1[N+](=O)[O-]` gave a melting point of 171 to 172 °C.

For `COc1cc2c(cc1OC)N(C(C)=O)CC(N(C)C)C2` (configuration not stated), the melting point is 145 to 147 °C.

`COc1ccc(Cn2nnc(-c3ccc(Cl)cc3Cl)c2N)cc1`: the melting point fell in the range of 134 to 137 °C.

Take `Cc1ccn2c(=Nc3ccncc3)snc2c1`: the melting point lay within 144 to 145 °C.

In turn, `CC(C)n1nc(-c2cc(C#N)c(C(N)=O)nc2-c2ccccc2)ccc1=O` displayed a melting point of 221 to 223 °C.

Regarding `CCOC(=O)CCCSc1nnc(S)s1`, the melting point is 107 to 108 °C.

For the compound `CCC(=O)N1CCCSC1=C[N+](=O)[O-]`, the melting point was 84 to 86 °C.

The compound `COc1cc(OC)cc(-c2nc[nH]c2-c2ccc(OC)c(O)c2F)c1` came in with a melting point of 126 to 128 °C.

With `COC(=O)CCC(=O)c1cc2c(s1)CCc1ccccc1C2=O`, the melting point lay within 97 to 98 °C.

`CCC(C)(C)Nc1c(NCc2cc(C)cc(C)c2)c(=O)c1=O` came in with a melting point of 222 to 224 °C.

On to `CCCn1c(=O)c2[nH]c(C3CCCC3)nc2n(CCc2ccc(NC(C)=O)cc2)c1=O`, for which the melting point was more than 270 °C.

`C/C(=C\c1ccc(C(=O)O)cc1)c1ccc2c(c1)SCCS2`: the melting point was in the range of 236 to 237 °C.

The compound `COc1ccc(CCCOCCn2cnc3c(N)nc4ccccc4c32)cc1` displayed a melting point of 116 to 118 °C.

In turn, `c1c(C(CN2CCNCC2)N2CCNCC2)nc(N2CCCC2)nc1N1CCCC1` (configuration not stated) yielded a melting point of 148 to 149 °C.

The compound `Cc1cc(-c2ncn3c(C(F)(F)F)cc(-c4ccc(C(F)(F)F)c(C(F)(F)F)c4)nc23)ccn1` registered a melting point of 218 °C.

In turn, `CCOCc1nc2c(N)nc3ccccc3c2n1C[C@@H](O)CO` registered a melting point of 99 to 100 °C.

In turn, `Oc1ccc(C2N(c3ccccc3)CCN2c2ccccc2)c2cccnc12` showed a melting point of 190 to 196 °C.

As to `O=C(O)CCc1ccc(CNC(=O)OCC2c3ccccc3-c3ccccc32)cc1`, the melting point was 164 to 166 °C.

`COc1ccc(O[C@@H]2COc3ccc(OCc4ccccn4)cc3[C@@H]2O)cc1` (relative stereo): the melting point was in the range of 117 to 118 °C.

Compound `Fc1ccc(COc2ncc(F)c(NCOCc3ccccc3)n2)cc1` gave a melting point of 64 to 66 °C.

Take `CN(C)C=C1C(=O)N(c2cccc(C(F)(F)F)c2)c2ccccc21`: the melting point lay within 103 to 106 °C.

As for `Cc1cc(C)c(Nc2nc(C)ccc2S(=O)(=O)c2cccc(O)c2)c(C)c1`, the melting point lay in the range of 196 to 197 °C.

`CCOC(=O)c1snnc1C` displayed a melting point of 59 to 61 °C.

The compound `COC(=O)C1=CC(C(=O)c2cc(C)ccc2O)=CN2CCc3c([nH]c4ccccc34)C12C(=O)OC` (configuration not stated) came in with a melting point of 197 °C.

`CC1(C)CCC(C)(C)c2cc3cc(-c4csc(C(=O)O)c4)ccc3cc21` displayed a melting point of 207 to 208 °C.

On to `CCn1nc(OCC(=O)C(C)(C)C)c(-c2ccc(F)cc2)c1-c1ccc(S(C)(=O)=O)cc1`, for which the melting point lay in the range of 144 to 146 °C.

Take `CCCCCCCCCCCCc1ccc(S(=O)(=O)Nc2nnc(CCCCCNC)s2)cc1`: the melting point was in the range of 158 to 160 °C.

As to `CCC(CC(Oc1ccccc1)C(=O)O)Oc1ccc(Cl)cc1` (configuration not stated), the melting point came to 94 °C.

`COc1cc(C)ccc1S(=O)(=O)NC(=O)C(c1cc(OC)c2c(c1)OCO2)c1cn(C)c2cc(C=O)ccc12` (configuration not stated) came in with a melting point of 233 °C.

Turning to `CCOC(COc1cccc2c1OCCO2)OCC`, the melting point amounted to 73.1 °C.

On to `O=C(NCc1ccccn1)C1=C(C(=O)Nc2cc(OC3CCCC3)c(Cl)cc2F)CCCC1`, for which the melting point was 144 to 148 °C.

`CCN(O)Cc1nnc2n1-c1ccc(Cl)cc1C(c1ccccc1)=NC2`: the melting point lay in the range of 154 to 157 °C.

The compound `Nc1ccc(C(=O)Nc2ccc(-c3c[nH]c(=O)cn3)cc2)cc1` returned a melting point of more than 300 °C.

With `O=Cc1ccc(OCc2ccsc2)cc1OC(C(=O)O)c1ccccc1` (racemic), the melting point lay within 172 to 174 °C.

Turning to `CC(C)n1nc(-c2sc(C(=O)N(C)C)nc2-c2ccccc2)ccc1=O`, the melting point lay within 141 to 144 °C.

With `CC1=CC(C)(C)Cc2c1nc(C(C)C)c(C(C)O)c2-c1ccc(F)cc1` (configuration not stated), the melting point lay within 117 to 119 °C.

As for `CC(=O)N[C@H]1CCC(=O)N2CCC[C@@H](C(=O)OC(C)(C)C)N2C1=O`, the melting point was 162 to 163 °C.

`CCCCc1nc(Cl)c(COC)n1Cc1ccc(-c2ccccc2NS(=O)(=O)C(F)(F)F)cc1` had a melting point of 148 to 150 °C.

On to `Cn1c(=O)[nH]c2ccc(Br)cc21`, for which the melting point lay within 237 to 238 °C.

For the compound `O=C(O)CCCCCNS(=O)(=O)c1ccccc1`, the melting point lay in the range of 113 to 115 °C.

In turn, `COc1ccccc1NC(=O)Nc1nc(Nc2ccccc2-c2ccccc2)nc(N2CCCC(C(=O)O)C2)n1` (configuration not stated) registered a melting point of 245 to 247 °C.

As for `CN(C)S(=O)(=O)Oc1c(I)cc(C(C)(C)C)cc1CN`, the melting point fell in the range of 94 to 95 °C.

In the case of `COC(=O)c1ccccc1S(=O)COc1ccc(Cl)cc1Cl` (configuration not stated), the melting point was in the range of 64 to 67 °C.

Take `CC(C)(C)Nc1ccccc1C(CCC1CCCCC1)C(=O)c1cccc(Cl)c1` (configuration not stated): the melting point lay in the range of 150 to 152 °C.

Turning to `O=C(NCc1ccc2cc(O)ccc2c1)c1cc2ccccc2o1`, the melting point is 200 to 202 °C.

`CCNC(=O)Nc1cc(-c2c(-c3ccc(F)c(C)c3)nc3cc(C(C)(C)C)c(Cl)nn23)ccn1`: the melting point lay in the range of 246 to 247 °C.

`CN(C)CCCN1N=C2C(=Cc3ccccc3)CCCCC2C1c1ccccc1` (configuration not stated): the melting point is 92 to 94 °C.

For `CCC(=O)N[C@@H]1Cc2ccccc2N(OC)C1=O`, the melting point fell in the range of 98 to 99 °C.

For the compound `CCN(c1cc(Cl)ccc1C(=O)c1cnoc1C1CC1)S(C)(=O)=O`, the melting point was in the range of 114 to 116 °C.

`COC(=O)c1ccc(C2NCCc3c2[nH]c2ccccc32)cc1` (configuration not stated) gave a melting point of 179 °C.

Turning to `N#CC(C(=O)c1ccc(Cl)cc1)=C1CCCN1Cc1ccc(Cl)nc1`, the melting point is 142 to 144 °C.

As for `O=C1c2ccccc2-c2c1c(-n1ccnc1)nc1ccc(Br)cc21`, the melting point lay in the range of 283 to 285 °C.

Turning to `CCN1C(=O)SC(Cc2ccc(NC(=O)/C=C/c3cnn(C)c3-c3ccc(F)cc3)cc2)C1=O` (configuration not stated), the melting point lay in the range of 214 to 215 °C.

`O=Cc1ccc(C#Cc2cc3ncnc(Nc4ccc(OCc5cccc(F)c5)c(Cl)c4)c3s2)o1` returned a melting point of 229 °C.

The compound `CN(C)CCn1c(=O)c2cc([N+](=O)[O-])ccc2c2cnc3cc4c(cc3c21)OCO4` had a melting point of 204 to 205 °C.

Consider `CN1C(=O)CCC2(C)c3ccc(CC(=O)O)cc3CCC12` (configuration not stated), for which the melting point was in the range of 200 to 202 °C.

As to `CCCc1nn(-c2ccc(C(F)(F)F)cn2)cc1/C=C/C(=O)OCC`, the melting point is 104 to 105 °C.

In the case of `Cc1c(Sc2cccnn2)oc2ccc(Cl)cc12`, the melting point was in the range of 131 to 134 °C.

Compound `CCn1nnc(NC(=O)C(c2ccccc2)c2ccccc2)n1` had a melting point of 169 to 170 °C.

For `Cc1[nH]c(C(=O)C(Cl)(Cl)Cl)c2c1-c1ccc(Cl)cc1C(c1ccccc1F)=NC2`, the melting point is 222 to 225 °C.

`CC1=Nc2c(C)nn(C)c2C2=NC(C)(C)CN12`: the melting point lay in the range of 148 to 150 °C.

Take `O=C(Nc1ccccc1Cl)c1ccccc1SSc1ccccc1C(=O)Nc1ccccc1Cl`: the melting point was 247 to 249 °C.

For `CC(=O)Nc1nc2c(Oc3cc(-c4ccc(C(F)(F)F)cc4NC(=O)C4CCCCN4CC(C)C)ncn3)cccc2s1` (configuration not stated), the melting point lay in the range of 153 to 155 °C.

Regarding `CCOc1cc(C(Cl)(Cl)Cl)cc(OC)n1`, the melting point was 36 to 38 °C.

In turn, `Cn1cnc(S(=O)(=O)NCCCN2CCOCC2)c1` returned a melting point of 148 to 149 °C.

As to `N#Cc1c(Cc2ccccc2)nn(C2CCCC2)c1NC(=O)c1ccncc1`, the melting point was in the range of 189 to 191 °C.

`CC1(C)CC(OC(=O)Nc2ccccc2)CC(C)(C)N1CC(OC(=O)Nc1ccccc1)c1ccccc1` (configuration not stated) gave a melting point of 173 °C.

In turn, `CC1(C)C=Cc2cc(C#N)c([N+](=O)[O-])cc2O1` registered a melting point of 154 to 155 °C.
